In BindingDB's records for doi:10.1016/s0960-894x(02)00102-6 (Schering-Plough Research Institute, 2002):

Experiment: Michaelis-Menten constant was determined against Hepatitis C virus NS3 protease and represented as Km

CCCN(NC(=O)[C@H]1CCCN1C(=O)[C@@H](NC(=O)[C@@H](NC(=O)[C@H](CC(=O)O)NC(=O)[C@H](CCC(=O)O)NC(=O)[C@@H](NC(C)=O)[C@@H](C)O)C(C)C)C(C)C)C(=O)Oc1ccc([N+](=O)[O-])cc1 [Azapeptide]
Ki: 8 µM
